Results published in the supplement of paper PMC10307832.

Legend:
Assay in all cases: relative viability (nuclei count vs DMSO), 5 days (fraction); higher = more cells survive
[1] = compound: C1CC(C2=C(C1)C3=C(N2)C=CC(=C3)Cl)C(=O)N [Selisistat] + CC(=O)c1c(C)c2cnc(Nc3ccc(N4CCNCC4)cn3)nc2n(C2CCCC2)c1=O [Palbociclib] (partner 0.5 µM)
Method in brief: (§1)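 Each reported value is a median over duplicate plates. It expresses relative viability: treated-well nuclei count divided by vehicle-well nuclei count. Lung cancer cell lines in 1536-well plates were dosed by pin tool a day after seeding, alone with one drug or with a fixed anchor-drug dose plus five library-drug doses (not always all listed) in √10 steps, and nuclei were counted after 5 days.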

[2] = compound: c1ccc2c(CCNc3ccc(Nc4ccncc4)cc3)c[nH]c2c1 [Serdemetan] + CC(=O)c1c(C)c2cnc(Nc3ccc(N4CCNCC4)cn3)nc2n(C2CCCC2)c1=O [Palbociclib] (partner 0.5 µM)
Method in brief: as §1

[3] = compound: c1ccc2c(CCNc3ccc(Nc4ccncc4)cc3)c[nH]c2c1 [Serdemetan] + O=C(c1cc(Cc2n[nH]c(=O)c3ccccc23)ccc1F)N1CCN(C(=O)C2CC2)CC1 [Olaparib] (partner 8 µM)
Method in brief: as §1

[4] = compound: c1ccc2c(CCNc3ccc(Nc4ccncc4)cc3)c[nH]c2c1 [Serdemetan] + CS(=O)(=O)N1CCN(Cc2cc3nc(-c4cccc5[nH]ncc45)nc(N4CCOCC4)c3s2)CC1 [Pictilisib] (partner 1 µM)
Method in brief: as §1

Cell Line | relative viability ([1]; first compound 0.4 µM) | relative viability ([1]; first compound 1.265 µM) | relative viability ([1]; first compound 4 µM) | relative viability ([1]; first compound 12.65 µM) | relative viability ([1]; first compound 40 µM) | relative viability ([2]; first compound 0.04 µM) | relative viability ([2]; first compound 0.1265 µM) | relative viability ([2]; first compound 0.4 µM) | relative viability ([2]; first compound 1.265 µM) | relative viability ([2]; first compound 4 µM) | relative viability ([3]; first compound 0.04 µM) | relative viability ([3]; first compound 0.1265 µM) | relative viability ([3]; first compound 0.4 µM) | relative viability ([3]; first compound 1.265 µM) | relative viability ([3]; first compound 4 µM) | relative viability ([4]; first compound 0.04 µM) | relative viability ([4]; first compound 0.1265 µM) | relative viability ([4]; first compound 0.4 µM) | relative viability ([4]; first compound 1.265 µM) | relative viability ([4]; first compound 4 µM)
201T | 0.369 | 0.338 | 0.32 | 0.333 | 0.365 | 0.367 | 0.353 | 0.341 | 0.33 | 0.327 | 0.821 | 0.8 | 0.822 | 0.543 | 0.492 | 0.707 | 0.712 | 0.67 | 0.655 | 0.664
A549 | – | – | – | – | – | – | – | – | – | – | 0.208 | 0.382 | 0.269 | 0.141 | 0.147 | 0.537 | 0.558 | 0.517 | 0.264 | 0.262
A-427 | 0.57 | 0.485 | – | 0.57 | 0.554 | 0.533 | 0.497 | 0.525 | 0.462 | 0.444 | 0.693 | 0.639 | 0.711 | 0.66 | 0.643 | 0.787 | 0.704 | 0.607 | 0.49 | 0.599
ABC-1 | 0.713 | 0.695 | – | 0.563 | 0.735 | 0.553 | 0.586 | 0.694 | 0.611 | 0.459 | 0.627 | 0.689 | 0.982 | 0.702 | 0.573 | 0.674 | 0.673 | 0.616 | 0.367 | 0.294
BEN | 0.467 | 0.502 | 0.486 | 0.448 | 0.459 | 0.513 | 0.494 | 0.504 | 0.365 | 0.449 | 0.975 | 0.98 | 1.15 | 0.81 | 0.594 | 0.57 | 0.529 | 0.565 | 0.535 | 0.496
CAL-12T | 0.534 | 0.41 | 0.122 | 0.448 | 0.409 | 0.467 | 0.422 | 0.35 | 0.424 | 0.539 | 0.777 | 0.713 | 0.576 | 0.742 | 0.67 | – | 0.521 | – | 0.369 | 0.368
COR-L23 | 0.372 | 0.296 | 0.332 | 0.305 | 0.296 | 0.235 | 0.3 | 0.349 | 0.213 | 0.236 | 0.316 | 0.324 | 0.386 | 0.313 | 0.289 | 0.665 | 0.767 | 0.785 | 0.598 | 0.752
COR-L 105 | 0.427 | 0.378 | 0.397 | 0.419 | 0.437 | 0.4 | 0.403 | 0.359 | 0.297 | 0.411 | 0.774 | 0.677 | 0.542 | 0.603 | 0.565 | 0.366 | 0.486 | 0.322 | 0.427 | 0.37
Calu-6 | – | – | – | – | – | – | – | – | – | – | 0.561 | 0.612 | 0.555 | 0.412 | 0.362 | 0.912 | 0.888 | 0.888 | 0.647 | 0.621
ChaGo-K-1 | 0.91 | 0.918 | 0.832 | 0.816 | 0.889 | 0.864 | 0.746 | 0.488 | 0.271 | 0.296 | 0.401 | 0.269 | 0.258 | 0.168 | 0.257 | – | 0.832 | 0.649 | 0.421 | 0.659
EBC-1 | – | – | – | – | – | – | – | – | – | – | 0.694 | 0.669 | 0.703 | 0.594 | 0.547 | 0.35 | 0.449 | 0.451 | 0.411 | 0.368
IA-LM | – | – | – | – | – | – | – | – | – | – | 0.883 | 0.886 | 0.839 | 0.392 | 0.396 | 0.4 | 0.499 | 0.325 | 0.314 | 0.389
NCI-H522 | 1 | 0.969 | 0.714 | 0.921 | 1.02 | 1.01 | 0.954 | 0.899 | 0.681 | 0.856 | 0.595 | 0.665 | 0.65 | 0.458 | 0.477 | – | – | – | – | –
NCI-H596 | – | – | – | – | – | – | – | – | – | – | 0.694 | 0.657 | 0.517 | 0.532 | 0.475 | 0.41 | 0.411 | 0.346 | 0.332 | 0.339
NCI-H1299 | – | – | – | – | – | – | – | – | – | – | 0.953 | 0.91 | 0.869 | 0.787 | 0.57 | 0.858 | 0.864 | 0.679 | 0.61 | 0.384
NCI-H1563 | – | – | – | – | – | – | – | – | – | – | – | – | – | – | – | 0.613 | 0.665 | 0.664 | 0.549 | 0.628
NCI-H1648 | 0.281 | 0.268 | – | 0.296 | 0.299 | – | 0.233 | 0.242 | 0.219 | 0.212 | – | 0.744 | 0.633 | 0.399 | 0.425 | – | – | – | – | –
NCI-H1703 | – | – | – | – | – | – | – | – | – | – | 0.427 | 0.397 | 0.415 | 0.386 | 0.333 | 0.213 | 0.278 | 0.3 | 0.271 | 0.232
NCI-H2342 | 0.554 | 0.753 | 0.46 | 0.538 | 0.611 | 0.528 | 0.494 | 0.508 | 0.481 | 0.489 | 0.621 | 0.445 | 0.416 | 0.236 | 0.334 | – | – | – | – | –
SW 900 | 0.549 | 0.517 | 0.502 | 0.553 | 0.511 | 0.615 | 0.58 | 0.59 | 0.451 | 0.361 | 1.03 | 0.892 | 0.861 | 0.691 | 0.459 | – | – | – | – | –
